Assay results published in patent US20190282616A1, “MACROPHAGES REDIRECT PHAGOCYTOSIS BY NON-PROFESSIONAL PHAGOCYTES AND INFLUENCE INFLAMMATION” (University of Virginia Patent Foundation, priority 2016, published 2019).

Tests used:
LR73 cells [1] = conditions: liposomes of 150-200 nm; IGF-1 50 ng/mL, EGF or VEGF 100 ng/mL each
Description: (§1) LR73, SVEC-40, BEAS-2B, and 16HBE14o-cells were seeded in a 24 well plate. Thymocytes were isolated from 4-6 week old mice and induced to undergo apoptosis with dexamethasone. Thymocytes or prepared microvesicles were then stained with either CypHer5E (GE Healthcare, PA15401) or TAMRA (Invitrogen, C-1171). LR73 and SVEC-40 cells were incubated with apoptotic thymocytes at a 1:10 phagocyte to target ratio, BEAS-2B at a 1:5 phagocyte to target ratio, and 16HBE14o—at a 1:20 phagocyte to target ratio for 2 hours. Mouse IGF-I (Sigma-Aldrich), human IGF-I (Sigma-Aldrich), human IGF-II (Sigma-Aldrich) were added to the phagocytes at the same time as addition of apoptotic targets. For IGFBP3 studies, IGFBP3 (Sigma-Aldrich) was added to media or supernatant from J774 cells for one hour to allow IGFBP3 to bind to any available IGF-I, then the mix is added to phagocytes along with apoptotic targets. For all pharmacological studies, phagocytes were pre-incubated with the compounds listed below for one hour prior to addition of apoptotic targets: cytochalasin D (Sigma-Aldrich, C8273, 1 μM), Latrunculin A (Tocris, 3973, 150 nM), CK-666 (Tocris, 3950, 25 μM-100 μM), OSI-906 (Selleckchem, S1091, 5 nM-40 nM), NVP-AEW541 (Selleckchem, S1034, 25 nM-100 nM), Rapamycin (Sigma-Aldrich, R0395, […]), MK-2206 2HCl (Selleckchem, S1078, 10 nM-1 U0126-EtOH (Selleckchem, S1102, […]), Wortmannin (Sigma-Aldrich, W1628, 50 nM-200 nM), Y27632 (Calbiochem, 688000, 3.75 μM-15 μM), or GSK269962 (Tocris, 4009, 80 nM-2 μM). […] Targets were then washed off three times with PBS, and the cells were dissociated from the plate with trypsin and the engulfment assessed by flow cytometry.
Liposomes were prepared by dissolving the lipids (phosphatidylserine, dioleoyl phosphatidylcholine, cholesterol and the lipid DiD dye) in chloroform, evaporating chloroform under flow of argon gas in a glass vial, then subjecting the lipid layer to overnight lyophilization to remove traces of organic solvent. Then normal saline was added for hydration, and intense vortexing was preformed to prepare multilamellar vesicles (MIN). Liposomes were repeatedly filtered through a 0.2 um Nuclepore polycarbonate filter to prepare smaller particles. Particle size was verified by dynamic light scattering using Nicomp 370.

[2] = system: YFP airway epithelial cells; assay: In vivo engulfment assay: airway epithelial cells; set-up: species or system mouse; conditions: 1 μg IGF-1 intranasally
Description: (§2) CCSP-Cre/YFP mice were administered PBS or 1 μg of IGF-1 intranasally. One hour later, 100 million CypHer5E-labelled apoptotic thymocytes with or without IGF-I were injected intranasally for 3.5 hours. The BAL fluid was harvested and the lungs excised, minced, and digested into a single cell suspension. The cells were then stained with appropriate markers: CD11c and Siglec F for alveolar macrophage markers and EpCam (along with YFP expression) for airway epithelial cells and analyzed by flow cytometry to assess apoptotic cell uptake by the airway epithelial cells and the alveolar macrophages.

[3] = system: 16HBE14o- human airway epithelial cells; assay: In vitro engulfment assay: apoptotic thymocyte uptake by 16HBE14o- cells; type: cell-based; conditions: IGF-1 treatment
Description: LR73, SVEC-40, BEAS-2B, and 16HBE14o-cells were seeded in a 24 well plate. Thymocytes were isolated from 4-6 week old mice and induced to undergo apoptosis with dexamethasone. Thymocytes or prepared microvesicles were then stained with either CypHer5E (GE Healthcare, PA15401) or TAMRA (Invitrogen, C-1171). LR73 and SVEC-40 cells were incubated with apoptotic thymocytes at a 1:10 phagocyte to target ratio, BEAS-2B at a 1:5 phagocyte to target ratio, and 16HBE14o—at a 1:20 phagocyte to target ratio for 2 hours. Mouse IGF-I (Sigma-Aldrich), human IGF-I (Sigma-Aldrich), human IGF-II (Sigma-Aldrich) were added to the phagocytes at the same time as addition of apoptotic targets. For IGFBP3 studies, IGFBP3 (Sigma-Aldrich) was added to media or supernatant from J774 cells for one hour to allow IGFBP3 to bind to any available IGF-I, then the mix is added to phagocytes along with apoptotic targets. […] Targets were then washed off three times with PBS, and the cells were dissociated from the plate with trypsin and the engulfment assessed by flow cytometry.

J774 macrophage cells = assay: Apoptotic thymocyte phagocytosis by J774 macrophage cells; type: cell-based; conditions: even with supra-physiological concentrations of IGF-1, every time point
LR73 cells [4] = assay: In vitro engulfment assay: apoptotic thymocyte uptake by LR73 cells; type: cell-based, hamster; conditions: LR73 cells pretreated with IGF-I, washed
alveolar macrophages = assay: In vivo engulfment assay: alveolar macrophages; set-up: species or system mouse; conditions: same IGF-1 treated mice
Description: as §2

LR73 cells [5] = assay: In vitro engulfment assay: apoptotic thymocyte uptake by LR73 cells; type: cell-based, hamster
Description: as §1

insulin-like growth factor I [IGF-1]
uptake of PtdSer containing liposomes by LR73 cells (LR73 cells [1]): enhanced the uptake of PtdSer containing liposomes | apoptotic cell engulfment by YFP airway epithelial cells in vivo ([2]; apoptotic thymocytes): decreased apoptotic cell engulfment | liposome uptake by YFP airway epithelial cells in vivo ([2]; liposomes): enhanced lipo some uptake | apoptotic thymocyte uptake by 16HBE14o- cells [3]: engulfment dampening effect of IGF-1 was also seen | corpse uptake by J774 cells (J774 macrophage cells): did not affect corpse uptake | engulfment after washing phagocytes pre-treated with IGF-1 (reversibility) (LR73 cells [4]): near complete restoration of engulfment | engulfment of apoptotic cells or liposomes by lung macrophages in vivo (alveolar macrophages): unaffected in their ability to engulf these targets | engulfment with IGF-1 added simultaneously with apoptotic cells (LR73 cells [5]; data not shown): inhibited engulfment similar to pre-treated cells | apoptotic cell uptake (engulfment) by LR73 cells (LR73 cells [5]; soluble mediator alone, IGF-I at concentrations reported in serum (100-600 ng/mL), other factors over a range of concentrations): significantly dampened apoptotic cell uptake | apoptotic cell uptake by LR73 cells with macrophage produced IGF-1 (LR73 cells [5]; supernatant of J774 cells treated with rIL-4 for 24 hrs): could also suppress apoptotic cell uptake by LR73 cells
